Measurements reported in the supplement of paper PMC11061612.

Legend:
Experiment in all cases: Bliss excess, mean over the matrix (fraction); higher = more synergy
AM-38 (Glioblastoma) = test system: AM-38 (Glioblastoma)
Summary of the method: (§1)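 Bliss excess equals the observed combination effect minus the expected value EA + EB − EA·EB, where EA and EB are the effects of each agent alone. Combination Emax is the second-highest inhibition within the matrix. Inhibition was scaled from CellTiter-Glo 2.0 luminescence, with 0 set by vehicle wells and 1 by blank wells, after 72 hours of two-drug dosing of cells plated in 1536-well plates.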

[1] = test system: BHT-101 (Thyroid Gland Carcinoma)
Summary of the method: as §1

[2] = test system: BxPC-3 (Pancreatic Carcinoma)
Summary of the method: as §1

[3] = test system: CL-11 (Colorectal Carcinoma)
Summary of the method: as §1

[4] = test system: MDA-MB-415 (Breast Carcinoma)
Summary of the method: as §1

[5] = test system: MONO-MAC-6 (Acute Myeloid Leukemia)
Summary of the method: as §1

[6] = test system: NCI-H1876 (Small Cell Lung Carcinoma)
Summary of the method: as §1

NCI-H226 (Mesothelioma) = test system: NCI-H226 (Mesothelioma)
Summary of the method: as §1

NCI-H2373 (Mesothelioma) = test system: NCI-H2373 (Mesothelioma)
Summary of the method: as §1

[7] = test system: NCI-H3118 (Head and Neck Carcinoma)
Summary of the method: as §1

[8] = test system: NCI-H596 (Other Solid Carcinomas)
Summary of the method: as §1

[9] = test system: OVCAR-3 (Ovarian Carcinoma)
Summary of the method: as §1

[10] = test system: P30-OHK (B-Lymphoblastic Leukemia)
Summary of the method: as §1

[11] = test system: P32-ISH (Burkitt's Lymphoma)
Summary of the method: as §1

[12] = test system: PA-TU-8988T (Pancreatic Carcinoma)
Summary of the method: as §1

T47D (Breast Carcinoma) = test system: T47D (Breast Carcinoma)
Summary of the method: as §1

[13] = test system: T84 (Colorectal Carcinoma)
Summary of the method: as §1

[14] = test system: TUR (Acute Myeloid Leukemia)
Summary of the method: as §1

WM35 (Melanoma) = test system: WM35 (Melanoma)
Summary of the method: as §1

[15] = test system: ZR-75-30 (Breast Carcinoma)
Summary of the method: as §1

Row | Compound | Bliss excess (AM-38 (Glioblastoma)) | Bliss excess [1] | Bliss excess [2] | Bliss excess [3] | Bliss excess [4] | Bliss excess [5] | Bliss excess [6] | Bliss excess (NCI-H226 (Mesothelioma)) | Bliss excess (NCI-H2373 (Mesothelioma)) | Bliss excess [7] | Bliss excess [8] | Bliss excess [9] | Bliss excess [10] | Bliss excess [11] | Bliss excess [12] | Bliss excess (T47D (Breast Carcinoma)) | Bliss excess [13] | Bliss excess [14] | Bliss excess (WM35 (Melanoma)) | Bliss excess [15]
1 | Cc1cc2ncnn2cc1Nc1ncc2c(n1)n(C1CCOCC1)c(=O)n2C [AZD7648] + CCN(CCO)CCCOc1ccc2c(Nc3cc(CC(=O)Nc4cccc(F)c4)[nH]n3)ncnc2c1 [AZD2811] (first compound max 10 µM, 7x7, partner max 1 µM) | 0.0106 | -0.0091 | -0.0052 | 0.0274 | -0.002 | 0.0123 | -0.074 | -0.0733 | -0.034 | 0.0241 | -0.0576 | 0.0046 | -0.0267 | -0.0367 | 0.0056 | 0.055 | 0.0161 | 0.0523 | -0.0036 | -0.0449
2 | COc1nnc2ccc(N3CCC(c4ccc(OCCN5CCN(C)C(=O)[C@H]5C)cc4)CC3)nn12 [AZD5153] + Cc1c2c(nn1C)CSCc1cc(n(C)n1)CSc1cc(c3ccccc3c1)OCCCc1c(C(=O)O)n(C)c3c-2c(Cl)ccc13 [AZD5991] (first compound max 1 µM, 7x7, partner max 1 µM) | -0.0083 | 0.0167 | -0.015 | -0.0499 | 0.031 | 0.0451 | 0.157 | -0.0209 | -0.0104 | -0.0602 | -0.0532 | 0.0003 | -0.0042 | -0.0108 | 0.005 | 0.0003 | -0.0524 | 0.0507 | 0.0634 | 0.0034
3 | CC1(C)CCC(CN2CCN(c3ccc(C(=O)NS(=O)(=O)c4ccc(NCC5CCOCC5)c([N+](=O)[O-])c4)c(Oc4cnc5[nH]ccc5c4)c3)CC2)=C(c2ccc(Cl)cc2)C1 [Venetoclax] + C=CCn1c(=O)c2cnc(Nc3ccc(N4CCN(C)CC4)cc3)nc2n1-c1cccc(C(C)(C)O)n1 [AZD1775] (first compound max 1 µM, partner max 1 µM) | -0.0561 | -0.0626 | 0.092 | -0.0425 | -0.028 | 0.0336 | -0.001 | -0.0296 | -0.0789 | -0.0416 | -0.0783 | -0.067 | 0.207 | -0.0118 | -0.0286 | -0.0814 | -0.0498 | -0.0071 | -0.0447 | -0.0286
4 | CC1(C)CCC(CN2CCN(c3ccc(C(=O)NS(=O)(=O)c4ccc(NCC5CCOCC5)c([N+](=O)[O-])c4)c(Oc4cnc5[nH]ccc5c4)c3)CC2)=C(c2ccc(Cl)cc2)C1 [Venetoclax] + C[C@@H](Nc1cc(F)cc(F)c1)c1cc(C(=O)N(C)C)cc2c(=O)cc(N3CCOCC3)oc12 [AZD8186] (first compound max 1 µM, 7x7, partner max 3 µM) | -0.0259 | 0.0031 | -0.0115 | -0.0397 | -0.0128 | 0.0531 | -0.0181 | -0.0577 | -0.0473 | -0.0439 | -0.0378 | -0.0062 | 0.149 | 0.0385 | 0.0383 | -0.0159 | -0.0284 | 0.0157 | -0.0332 | -0.0201
5 | CC(=O)Nc1cccc(-n2c(=O)n(C3CC3)c(=O)c3c(Nc4ccc(I)cc4F)n(C)c(=O)c(C)c32)c1 [Trametinib] + Cc1nc(-c2cn3c(n2)-c2ccc(-c4cnn(C(C)(C)C(N)=O)c4)cc2OCC3)n(C(C)C)n1 [Taselisib] (first compound max 1 µM, 7x7, partner max 10 µM) | 0.117 | 0.115 | 0.354 | 0.139 | -0.0162 | 0.244 | 0.132 | 0.003 | 0.0818 | 0.13 | 0.0725 | 0.037 | 0.151 | 0.0479 | 0.173 | 0.0046 | 0.233 | 0.157 | 0.124 | 0.0155
6 | Cc1c2c(nn1C)CSCc1cc(n(C)n1)CSc1cc(c3ccccc3c1)OCCCc1c(C(=O)O)n(C)c3c-2c(Cl)ccc13 [AZD5991] + Cc1cc2ncnn2cc1Nc1ncc2c(n1)n(C1CCOCC1)c(=O)n2C [AZD7648] (first compound max 1 µM, 7x7, partner max 10 µM) | -0.0347 | -0.0308 | -0.0007 | -0.0533 | -0.0924 | 0.016 | -0.0266 | -0.061 | -0.015 | -0.0707 | 0.0056 | -0.0311 | -0.0222 | 0.0465 | -0.051 | -0.0159 | -0.0431 | -0.0488 | -0.0073 | -0.0134
7 | CCN(CCO)CCCOc1ccc2c(Nc3cc(CC(=O)Nc4cccc(F)c4)[nH]n3)ncnc2c1 [AZD2811] + C[C@@H]1COCCN1C2=NC(=NC(=C2)C3(CC3)[S@](=N)(=O)C)C4=C5C=CNC5=NC=C4 [AZD6738] (first compound max 1 µM, 7x7, partner max 10 µM) | -0.0202 | -0.0298 | -0.0352 | -0.0488 | -0.0438 | -0.0262 | -0.0316 | -0.069 | -0.0139 | -0.0682 | -0.0056 | -0.0269 | -0.0736 | -0.0153 | 0.0002 | -0.0493 | -0.0103 | 0.019 | -0.0306 | -0.0533
